This passage reports IC50 results from patent US12240840B2, “Amide-substituted heterocyclic compounds for the treatment of conditions related to the modulation of IL-12, IL-23 and/or IFN-alpha” (BRISTOL-MYERS SQUIBB COMPANY, priority 2018, dated 2025).

A value given as a limit tells only on which side of the number the result lay.

The experiment has as its system IFNα-induced pSTAT5 (pY694) in CD3 positive cells of human whole blood. In words: IFNα-Induced STAT Phosphorylation in Human Whole Blood. Type of experiment: cell-based. The note with it: Homo sapiens, 1 h compound incubation, 1000 U/mL recombinant human IFNα A/D for 15 min, pSTAT5 in CD3 positive population, read-out: Human WB IFNα-Induced Stat Phosph. (IC50). The method in brief: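 Read-out is median fluorescence intensity of pSTAT5 (pY694) in the CD3-positive gate, by flow cytometry after fix/lyse and permeabilization. Before that, whole human blood anticoagulated with EDTA or ACD-A received compound for an hour and 1000 U/mL IFNα A/D for 15 min.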
As usually defined, the IC50 is the point on the concentration scale where inhibition reaches its midpoint. In the case of `[2H]C([2H])([2H])NC(=O)c1nnc(NC(=O)C2CC2)cc1Nc1cccc(-c2noc(CN3CCN(C(=O)OC(C)(C)C)CC3)n2)c1OC` [Example 34], the IC50 stood at 1010 nM.
Take `[2H]C([2H])([2H])NC(=O)c1nnc(NC(=O)C2CC2)cc1Nc1cccc(-c2ncc(C(=O)N3CCN(S(=O)(=O)C=C)CC3)s2)c1OC` [Example 241]: the IC50 was determined as 620 nM.
For `[2H]C([2H])([2H])NC(=O)c1nnc(NC(=O)C2CC2)cc1Nc1cccc(-c2ncc(C(=O)N3CCc4ccccc4C3)s2)c1OC` [Example 298] the value was more than 10000 nM; for `[2H]C([2H])([2H])NC(=O)c1cnc(NC(=O)C2CC2)cc1Nc1cccc(-c2noc(CN3CCOCC3)n2)c1OC` [Example 96], 15 nM; for `[2H]C([2H])([2H])NC(=O)c1nnc(NC(=O)C2CC2)cc1Nc1cccc(-c2ncc(C(=O)N3CC(C)(O)C3)s2)c1OC` [Example 346], 90 nM.
Next, `[2H]C([2H])([2H])NC(=O)c1nnc(NC(=O)C2CC2)cc1Nc1cccc(-c2nc(CNC(=O)CN3CCN(C)CC3)no2)c1OC` [Example 160]: 1790 nM; `[2H]C([2H])([2H])NC(=O)c1nnc(NC(=O)C2CC2)cc1Nc1cccc(-c2nc(CN(C)C(=O)OC(C)(C)C)no2)c1OC` [Example 167]: 2420 nM.
Next, `[2H]C([2H])([2H])NC(=O)c1nnc(NC(=O)C2CC2)cc1Nc1cccc(-c2cnn(CCNC(=O)C3(C#N)CC3)n2)c1OC` [Example 437]: 2410 nM; `[2H]C([2H])([2H])NC(=O)c1nnc(NC(=O)C2CC2)cc1Nc1cccc(-c2nc(CN)no2)c1OC` [Example 143]: 320 nM; `[2H]C([2H])([2H])NC(=O)c1nnc(NC(=O)C2CC2)cc1Nc1cccc(-c2noc(CN3CCCS3(=O)=O)n2)c1OC` [Example 76]: 30 nM.
Consider `[2H]C([2H])([2H])NC(=O)c1cnc(NC(=O)C2CC2)cc1Nc1cccc(-c2noc(COC)n2)c1OC` [Example 93], for which the IC50 is 50 nM.
Next, `[2H]C([2H])([2H])NC(=O)c1nnc(NC(=O)C2CC2)cc1Nc1cccc(-n2cc(CNC)nn2)c1OC` [Example 5]: 3300 nM.
Take `[2H]C([2H])([2H])NC(=O)c1nnc(NC(=O)C2CC2)cc1Nc1cccc(-c2nc(C)c(C(=O)NC(C)C)s2)c1OC` [Example 364]: the IC50 stood at 440 nM.
For `[2H]C([2H])([2H])NC(=O)c1nnc(NC(=O)C2CC2)cc1Nc1cccc(-c2noc(C(CC)C(=O)NCCOC)n2)c1OC` (centres unmarked) [Example 41], the IC50 came out at 60 nM.
Next, `[2H]C([2H])([2H])NC(=O)c1cnc(NC(=O)CC)cc1Nc1cccc(-c2noc(COC)n2)c1OC` [Example 88]: 230 nM; `[2H]C([2H])([2H])NC(=O)c1nnc(NC(=O)C2CC2)cc1Nc1cccc(-c2cc(C(=O)N(C)CCOC)n(C)n2)c1OC` [Example 481]: 390 nM.
Turning to `[2H]C([2H])([2H])NC(=O)c1nnc(NC(=O)C2CC2)cc1Nc1cccc(-c2ncc(C(=O)NCCC(=O)OC)s2)c1OC` [Example 290], the IC50 was determined as 100 nM.
With `[2H]C([2H])([2H])NC(=O)c1nnc(NC(=O)C2CC2)cc1Nc1cc(F)cc(-c2cc(C(=O)N3CCS(=O)(=O)CC3)n(C)n2)c1OC` [Example 503], the IC50 was determined as 860 nM.
For `COc1c(Nc2cc(N)nnc2C(N)=O)cccc1-c1noc(C(=O)NC2CCN(C)CC2)n1` [Example 116] the value was 4970 nM; for `[2H]C([2H])([2H])NC(=O)c1nnc(NC(=O)C2CC2)cc1Nc1cccc(-c2ncc(C(=O)N3CCC[C@H]3CO)s2)c1OC` [Example 302], 110 nM.
For `[2H]C([2H])([2H])NC(=O)c1nnc(NC(=O)C2CC2)cc1Nc1cccc(-c2cc(C)n(CCN)n2)c1OC` [Example 462] the value was 4450 nM; for `COc1c(Nc2cc(NC(=O)C3CC3)nnc2C(N)=O)cccc1-c1noc([C@@H]2[C@H](O)CCN2S(C)(=O)=O)n1` [Example 66], 30 nM.
For `[2H]C([2H])([2H])NC(=O)c1nnc(NC(=O)C2CC2)cc1Nc1cccc(-c2nc(C)c(C(=O)N(C)CC)s2)c1OC` [Example 370] the value was 160 nM.
As for `[2H]C([2H])([2H])NC(=O)c1nnc(NC(=O)C2CC2)cc1Nc1cccc(-c2cc(C(=O)N3CCCC3)n(C)n2)c1OC` [Example 482], the IC50 turned out to be 150 nM.
With `[2H]C([2H])([2H])NC(=O)c1nnc(NC(=O)C2CC2)cc1Nc1cccc(-c2cc(C(=O)N3CCN(S(C)(=O)=O)CC3)n(C)n2)c1OC` [Example 502], the IC50 was determined as 150 nM.
`[2H]C([2H])([2H])NC(=O)c1cnc(NC(=O)C2CC2)cc1Nc1cccc(-c2cnn(CCNC(=O)CC#N)n2)c1OC` [Example 440]: the IC50 turned out to be 1160 nM.
On to `[2H]C([2H])([2H])NC(=O)c1nnc(NC(=O)C2CC2)cc1Nc1cccc(-c2ncc(C(=O)Nc3ccc(OC)cc3)s2)c1OC` [Example 296], for which the IC50 was more than 10000 nM.
Next, `[2H]C([2H])([2H])NC(=O)c1nnc(NC(=O)C2CC2)cc1Nc1cccc(-c2ccn(CCNC(=O)CO)n2)c1OC` [Example 467]: 200 nM; `[2H]C([2H])([2H])NC(=O)c1nnc(NC(=O)C2CC2)cc1Nc1cccc(-c2nc([C@@H](C)NS(C)(=O)=O)no2)c1OC` [Example 195]: 720 nM; `[2H]C([2H])([2H])NC(=O)c1nnc(NC(=O)C2CC2)cc1Nc1cccc(-c2ncc(CNC(=O)CC#N)s2)c1OC` [Example 264]: 1550 nM.
For `CCC(C(=O)NCCOC)c1nc(-c2cccc(Nc3cc(NC(=O)C4CC4)nnc3C(N)=O)c2OC)no1` (centres unmarked) [Example 56] the value was 120 nM; for `[2H]C([2H])([2H])NC(=O)c1nnc(NC(=O)C2CC2)cc1Nc1cccc(-c2cc(C(=O)N(C)CCN(C)C)n(C)n2)c1OC` [Example 526], 520 nM.
Regarding `[2H]C([2H])([2H])NC(=O)c1nnc(NC(=O)C2CC2)cc1Nc1cccc(-c2noc(CN3CCN(C(=O)OC)CC3)n2)c1OC` [Example 14], the IC50 was found to be 50 nM.
In the case of `[2H]C([2H])([2H])NC(=O)c1nnc(NC(=O)C2CC2)cc1Nc1cccc(-c2ncc(C(=O)NCCN3CCOCC3)s2)c1OC` [Example 321], the IC50 is 30 nM.
Next, `COc1c(Nc2cc(NC(=O)C3CC3)nnc2C(N)=O)cccc1-c1noc(CO)n1` [Example 70]: 14 nM; `[2H]C([2H])([2H])NC(=O)c1nnc(NC(=O)C2CC2)cc1Nc1cccc(-c2noc(CNC(C)=O)n2)c1OC` [Example 31]: 380 nM; `[2H]C([2H])([2H])NC(=O)c1nnc(NC(=O)C2CC2)cc1Nc1cccc(-c2cc(C(=O)N3CCN(C(C)C)CC3)n(C)n2)c1OC` [Example 531]: 60 nM.
In the case of `[2H]C([2H])([2H])NC(=O)c1nnc(NC(=O)C2CC2)cc1Nc1cccc(-c2nc([C@H](NC(=O)COC)[C@H](C)O)no2)c1OC` [Example 205], the IC50 stood at 850 nM.
In the case of `[2H]C([2H])([2H])NC(=O)c1cnc(NC(=O)C2CC2)cc1Nc1cccc(-c2noc(CN3CCCS3(=O)=O)n2)c1OC` [Example 97], the IC50 is 30 nM.
Next, `[2H]C([2H])([2H])NC(=O)c1nnc(NC(=O)C2CC2)cc1Nc1cccc(-c2nc(CC=C)no2)c1OC` [Example 229]: more than 10000 nM; `[2H]C([2H])([2H])NC(=O)c1nnc(NC(=O)C2CC2)cc1Nc1cccc(-c2nc(CN3CCN(C(=O)CC#N)CC3)no2)c1OC` [Example 134]: 110 nM.
